Assay results published in ChEMBL document CHEMBL1130147, “Dihydrobenzofuran analogues of hallucinogens. 4. Mescaline derivatives” (J Med Chem, 1997).

How the values were obtained:
[1] = biological target: T1, 5-hydroxytryptamine receptor 2B (Homo sapiens, UniProt P41595); experiment: Agonist activity at cloned human 5-hydroxytryptamine 2B receptor using [3H]5-HT radioligand; type: binding
[2] = biological target: T2, 5-hydroxytryptamine receptor 2C (Homo sapiens, UniProt P28335); experiment: Antagonist activity at cloned human 5-hydroxytryptamine 2C receptor using [3H]mesulergine radioligand
T2 sequence (P28335 whole entry): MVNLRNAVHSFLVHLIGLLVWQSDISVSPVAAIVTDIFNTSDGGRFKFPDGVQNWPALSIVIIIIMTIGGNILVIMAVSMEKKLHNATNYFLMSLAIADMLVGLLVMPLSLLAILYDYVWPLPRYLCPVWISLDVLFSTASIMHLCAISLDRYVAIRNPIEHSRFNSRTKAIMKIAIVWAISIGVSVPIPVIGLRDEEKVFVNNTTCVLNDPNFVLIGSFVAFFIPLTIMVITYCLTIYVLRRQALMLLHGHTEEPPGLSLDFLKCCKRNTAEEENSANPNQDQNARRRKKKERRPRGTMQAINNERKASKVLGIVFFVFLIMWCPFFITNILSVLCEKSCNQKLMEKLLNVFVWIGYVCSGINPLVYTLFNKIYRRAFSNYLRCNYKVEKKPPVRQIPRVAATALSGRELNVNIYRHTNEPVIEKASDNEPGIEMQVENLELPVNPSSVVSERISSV

[3] = biological target: T3, 5-hydroxytryptamine receptor 2A (Rattus norvegicus, UniProt P14842); experiment: Ability to displace [3H]ketanserin from rat cortical homogenate 5-hydroxytryptamine 2A receptor
T3 sequence (P14842 whole entry): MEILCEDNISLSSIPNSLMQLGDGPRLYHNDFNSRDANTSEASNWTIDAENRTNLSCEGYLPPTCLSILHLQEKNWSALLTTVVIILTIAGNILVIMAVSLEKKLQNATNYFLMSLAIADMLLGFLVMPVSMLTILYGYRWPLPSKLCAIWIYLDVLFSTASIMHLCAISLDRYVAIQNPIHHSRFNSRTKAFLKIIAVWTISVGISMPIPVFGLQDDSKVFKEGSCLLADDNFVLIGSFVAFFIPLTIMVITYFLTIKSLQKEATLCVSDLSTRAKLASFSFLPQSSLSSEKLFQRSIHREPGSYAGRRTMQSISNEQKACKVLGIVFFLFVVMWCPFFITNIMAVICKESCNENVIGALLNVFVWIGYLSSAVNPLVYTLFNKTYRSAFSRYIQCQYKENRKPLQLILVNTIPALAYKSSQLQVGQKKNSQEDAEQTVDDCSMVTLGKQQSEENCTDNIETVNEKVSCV

[4] = biological target: T3, 5-hydroxytryptamine receptor 2A; experiment: Effect on phosphoinositide hydrolysis in NIH 3T3 fibroblast expressing 5-hydroxytryptamine 2A receptor; type: functional
[5] = biological target: T4, 5-hydroxytryptamine receptor 1A (Rattus norvegicus, UniProt P19327); experiment: Ability to displace [3H]-8-OH-DPAT from rat hippocampal homogenate 5-hydroxytryptamine 1A receptor; type: tissue-based, Hippocampus
T4 sequence (P19327 whole entry): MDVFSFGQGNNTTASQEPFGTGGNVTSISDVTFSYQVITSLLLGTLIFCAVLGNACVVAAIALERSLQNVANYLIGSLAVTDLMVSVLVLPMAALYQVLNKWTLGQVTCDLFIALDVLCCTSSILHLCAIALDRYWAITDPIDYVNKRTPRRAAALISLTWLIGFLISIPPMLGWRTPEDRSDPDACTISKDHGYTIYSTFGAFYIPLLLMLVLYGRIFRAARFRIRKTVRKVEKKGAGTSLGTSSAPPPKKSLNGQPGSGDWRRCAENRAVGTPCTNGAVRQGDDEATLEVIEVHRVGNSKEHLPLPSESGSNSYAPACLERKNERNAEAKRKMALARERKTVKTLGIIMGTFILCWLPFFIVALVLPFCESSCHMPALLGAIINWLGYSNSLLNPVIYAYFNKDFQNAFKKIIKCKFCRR

[6] = biological target: T2, 5-hydroxytryptamine receptor 2C; experiment: Agonist activity at cloned human 5-hydroxytryptamine 2C receptor using [125I]DOI radioligand; type: binding
[7] = biological target: T1, 5-hydroxytryptamine receptor 2B; experiment: Antagonist activity at cloned human 5-hydroxytryptamine 2B receptor using [3H]rauwolscine radioligand
Rattus norvegicus [8] = species: Rattus norvegicus; experiment: Effective dose showing 29% Drug Discrimination in LSD trained rats (number of animals tested = 8-12); type: functional
Rattus norvegicus [9] = species: Rattus norvegicus; experiment: Ability to inhibit accumulation [3H]5-HT in rat whole brain synaptosomes; type: functional
[10] = biological target: T5, 5-hydroxytryptamine receptor 2C (Rattus norvegicus, UniProt P08909); experiment: Effect on phosphoinositide hydrolysis in NIH 3T3 fibroblast 5-hydroxytryptamine 2C receptor; type: functional
T5 sequence (P08909 whole entry): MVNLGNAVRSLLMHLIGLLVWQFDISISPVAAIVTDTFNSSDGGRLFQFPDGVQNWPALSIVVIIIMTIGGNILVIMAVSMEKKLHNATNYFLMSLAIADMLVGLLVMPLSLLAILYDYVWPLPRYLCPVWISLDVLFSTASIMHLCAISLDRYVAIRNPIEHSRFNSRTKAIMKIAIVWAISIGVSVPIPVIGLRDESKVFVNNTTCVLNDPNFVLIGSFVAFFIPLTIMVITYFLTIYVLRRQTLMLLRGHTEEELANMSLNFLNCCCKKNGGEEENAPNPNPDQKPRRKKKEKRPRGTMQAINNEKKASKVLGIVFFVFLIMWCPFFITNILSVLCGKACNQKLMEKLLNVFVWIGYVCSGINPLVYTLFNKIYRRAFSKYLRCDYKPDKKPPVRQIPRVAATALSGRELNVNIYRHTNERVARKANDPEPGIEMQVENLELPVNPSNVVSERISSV

Rattus norvegicus [11] = species: Rattus norvegicus; experiment: Ability to inhibit accumulation [3H]DA in rat whole brain synaptosomes; type: functional
[12] = biological target: T3, 5-hydroxytryptamine receptor 2A; experiment: Effect on phosphoinositide hydrolysis in NIH 3T3 fibroblast 5-hydroxytryptamine 2A receptor; type: functional
[13] = biological target: T6, 5-hydroxytryptamine receptor 2A (Homo sapiens, UniProt P28223); experiment: Antagonist activity at cloned human 5-hydroxytryptamine 2A receptor using [3H]-Ketanserin radioligand
T6 sequence (P28223 whole entry): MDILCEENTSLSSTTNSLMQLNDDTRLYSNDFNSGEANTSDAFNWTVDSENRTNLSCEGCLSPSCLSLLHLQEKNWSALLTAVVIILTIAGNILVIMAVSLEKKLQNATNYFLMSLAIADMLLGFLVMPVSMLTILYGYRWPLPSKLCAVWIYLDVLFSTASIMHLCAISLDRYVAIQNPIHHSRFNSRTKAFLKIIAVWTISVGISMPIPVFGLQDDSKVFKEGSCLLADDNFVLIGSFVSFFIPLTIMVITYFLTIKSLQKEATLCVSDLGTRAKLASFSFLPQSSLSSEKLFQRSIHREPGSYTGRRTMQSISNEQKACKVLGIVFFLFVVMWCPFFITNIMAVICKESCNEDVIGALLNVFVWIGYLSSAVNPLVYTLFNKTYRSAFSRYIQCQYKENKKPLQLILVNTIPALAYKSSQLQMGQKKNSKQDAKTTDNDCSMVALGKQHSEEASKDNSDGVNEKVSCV

[14] = biological target: T6, 5-hydroxytryptamine receptor 2A; experiment: Agonist activity at cloned human 5-hydroxytryptamine 2A receptor using [125I]DOI radioligand
[15] = biological target: T1, 5-hydroxytryptamine receptor 2B; experiment: Antagonist activity at cloned human 5-hydroxytryptamine 2B receptor using [3H]- rauwolscine radioligand
Rattus norvegicus [16] = species: Rattus norvegicus; experiment: Effective dose showing 50% Drug Discrimination in LSD trained rats (number of animals tested = 8-12); type: functional
[17] = Partition coefficient (logP); type: physicochemical; details: octanol/water

T1 sequence (P41595 whole entry): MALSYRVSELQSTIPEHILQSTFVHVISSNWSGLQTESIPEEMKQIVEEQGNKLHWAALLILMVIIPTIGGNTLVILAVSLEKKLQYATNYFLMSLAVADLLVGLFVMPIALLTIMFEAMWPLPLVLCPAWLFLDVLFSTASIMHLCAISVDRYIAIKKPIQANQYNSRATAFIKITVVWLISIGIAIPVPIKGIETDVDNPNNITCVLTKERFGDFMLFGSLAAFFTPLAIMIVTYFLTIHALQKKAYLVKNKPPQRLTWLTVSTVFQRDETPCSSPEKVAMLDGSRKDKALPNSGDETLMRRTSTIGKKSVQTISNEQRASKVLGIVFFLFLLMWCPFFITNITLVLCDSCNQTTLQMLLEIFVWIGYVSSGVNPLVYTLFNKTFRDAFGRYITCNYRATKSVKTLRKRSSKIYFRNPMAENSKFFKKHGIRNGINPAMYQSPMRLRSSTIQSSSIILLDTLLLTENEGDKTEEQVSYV

Row | SMILES | Ki [1] [nM] | Ki [2] [nM] | Ki [3] [nM] | EC50 [4] [nM] | Ki [5] [nM] | Ki [6] [nM] | Ki [7] [nM] | ED50 (Rattus norvegicus [8]) [µmol/kg] | IC50 (Rattus norvegicus [9]) [nM] | EC50 [10] [nM] | IC50 (Rattus norvegicus [11]) [nM] | EC50 [12] [nM] | Ki [13] [nM] | Ki [14] [nM] | Ki [15] [nM] | ED50 (Rattus norvegicus [16]) [µmol/kg] | logP [17]
1 | COc1cc(CCN)c2c(c1OC)OCC2 | 523 | 1100 | 2500 | 3000 | 6200 | 118 | 311 | 57.8 | > 10000 | 2000 | > 10000 |  |  |  |  |  | 
2 | COc1c2c(c(CCN)c3c1OCC3)CCO2 | 301 | 654 |  |  |  | 61.5 |  | 55.2 | > 10000 | 1000 | > 10000 | 2000 | 4440 | 335 | 205 |  | 
3 | CCOc1c(OC)cc(CCN)cc1OC | 555 |  | 2100 |  | 6900 | 177 |  |  | > 10000 | 2000 | > 10000 | 4000 |  | 216 |  | 16.2 | 
4 | COc1cc(CCN)cc(OC)c1OC [MESCALINE] | 795 |  | 5500 |  | 6900 | 303 |  |  | > 10000 | 24000 | > 10000 | 4000 |  | 551 |  | 33.5 | 3.15
